Measurements reported in patent US20240246967A1, “AXL COMPOUNDS” (ARCUS BIOSCIENCES, INC., priority 2021, published 2024).

Target: T1, human TYRO3 (Homo sapiens, UniProt Q06418)
T1 construct: purchased Invitrogen
T1 sequence (Q06418 41-890): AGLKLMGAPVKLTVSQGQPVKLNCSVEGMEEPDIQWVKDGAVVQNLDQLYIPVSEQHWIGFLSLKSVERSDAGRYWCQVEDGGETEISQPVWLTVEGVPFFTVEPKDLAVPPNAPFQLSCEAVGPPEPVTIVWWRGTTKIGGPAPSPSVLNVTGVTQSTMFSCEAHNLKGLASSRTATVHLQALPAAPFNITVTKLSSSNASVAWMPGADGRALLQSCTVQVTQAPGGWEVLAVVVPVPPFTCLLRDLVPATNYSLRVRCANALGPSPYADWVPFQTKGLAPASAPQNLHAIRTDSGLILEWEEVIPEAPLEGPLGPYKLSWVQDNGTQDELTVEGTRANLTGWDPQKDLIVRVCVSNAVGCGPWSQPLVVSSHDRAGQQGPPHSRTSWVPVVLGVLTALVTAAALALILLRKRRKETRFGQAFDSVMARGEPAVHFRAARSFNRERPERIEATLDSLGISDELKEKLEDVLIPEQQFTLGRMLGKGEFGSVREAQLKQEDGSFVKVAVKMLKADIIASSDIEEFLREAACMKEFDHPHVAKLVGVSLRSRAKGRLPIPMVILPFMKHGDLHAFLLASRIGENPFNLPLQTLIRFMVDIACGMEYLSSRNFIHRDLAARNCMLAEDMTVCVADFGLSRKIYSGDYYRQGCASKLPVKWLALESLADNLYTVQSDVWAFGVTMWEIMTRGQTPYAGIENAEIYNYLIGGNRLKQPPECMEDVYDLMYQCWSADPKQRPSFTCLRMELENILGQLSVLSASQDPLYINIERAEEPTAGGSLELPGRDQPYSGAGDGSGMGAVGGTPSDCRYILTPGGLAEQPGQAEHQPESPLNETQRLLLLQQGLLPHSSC
Assay: HTRF KinEASE-TK biochemical potency assay, TYRO3
Conditions: 1 nM TYRO3, 700 μM ATP, 800 nM TK Substrate-biotin
Description: Purified recombinant human AXL, TYRO3 and MER proteins were purchased from Invitrogen™. 10 nM AXL, 2 nM TYRO3 or MER were incubated with varying concentrations of compounds in 50 mM HEPES, pH 7.4, 10 mM MgCl2, 0.01% BSA, 1 mM DTT and 2% DMSO in a total volume of 20 μl in a 384-well microplate (Corning™ #3640) at RT for 1 h. The AXL, TYRO3 and MER enzymatic reaction was initiated by transferring 10 μl of enzyme and compound mixture into 10 μl of 1.6 μM TK Substrate-biotin (HTRF® KinEASE-TK kit, Cisbio) and 1400 μM ATP pre-incubated in 50 mM HEPES, pH 7.4, 10 mM MgCl2, 0.01% BSA, 1 mM DTT in a 384-well microplate (Corning™ #3640) at RT, giving the final reaction conditions: 5 nM AXL, 1 nM TYRO3 or MER, 800 nM TK Substrate-biotin and 700 μM ATP in 50 mM HEPES, pH 7.4, 10 mM MgCl2, 0.01% BSA, 1 mM DTT and 1% DMSO with varying concentrations of compounds. Following 2 h incubation at RT, the AXL, TYRO3 and MER enzymatic reaction was stopped by transfer of 10 μl of reaction into 10 μl of detection mix (400 nM Streptavidin-XL665, 200-fold dilution TK Antibody-Cryptate and detection buffer, HTRF® KinEASE-TK kit, Cisbio) in a white 384-well microplate (Perkin Elmer, OptiPlate 384). After 1 h incubation at RT, the plate was put into a plate reader (Evision) to read at 665/620 nm (acceptor/donor) for HTRF. The value of the DMSO blank (MIN inhibition=100% activity) was used as a negative control. The positive control was established by adding 5 μl of enzyme and DMSO mixture into 10 μl of detection mix followed by addition of 5 μl of TK Substrate-biotin and ATP mixture (MAX inhibition=0% activity). To calculate the percent activity, Equation 1 was used. Ratio 665/620 is the value at a given compound concentration: […]

Structure (SMILES)	IC50
CC1(N2CCC[C@H]2CO)CCc2ccc(-c3cnc4[nH]nc(-c5ccc(S(=O)(=O)C6CC6)cc5)c4c3)cc2CC1 (stereo partly drawn) [Example 4, [(2S)-1-(2-{3-[4-(Cyclopropanesulfonyl)phenyl]-1H-pyrazolo[3,4-b]pyridin-5-yl}-7-methyl-6,7,8,9-tetrahydro-5H-benzo[7]annulen-7-yl)pyrrolidin-2-yl]methanol]	100 to 1000 nM
C[C@H]1CCCN1C1(C)CCc2ccc(-c3cnc4[nH]nc(-c5ccc(S(=O)(=O)C6CC6)cc5)c4c3)cc2CC1 (stereo partly drawn) [Example 5, (2S)-1-(2-{3-[4-(Cyclopropanesulfonyl)phenyl]-1H-pyrazolo[3,4-b]pyridin-5-yl}-7-methyl-6,7,8,9-tetrahydro-5H-benzo[7]annulen-7-yl)-2-methylpyrrolidine]	< 100 nM
CCC1(N2CCC[C@H]2C)CCc2ccc(-c3cnc4[nH]nc(-c5ccc(S(=O)(=O)C6CC6)cc5)c4c3)cc2CC1 (stereo partly drawn) [Example 6, (2R)-1-(2-{3-[4-(Cyclopropanesulfonyl)phenyl]-1H-pyrazolo[3,4-b]pyridin-5-yl}-7-ethyl-6,7,8,9-tetrahydro-5H-benzo[7]annulen-7-yl)-2-methylpyrrolidine]	100 to 1000 nM
CC1(N2CCC2)CCc2ccc(-c3cnc4[nH]nc(-c5ccc(S(=O)(=O)C6CC6)cc5)c4c3)cc2CC1 (centres unmarked) [Example 7, 1-(2-{3-[4-(Cyclopropanesulfonyl)phenyl]-1H-pyrazolo[3,4-b]pyridin-5-yl}-7-methyl-6,7,8,9-tetrahydro-5H-benzo[7]annulen-7-yl)azetidine]	100 to 1000 nM
C[C@@H]1CCCN1C1(C)CCc2ccc(-c3cnc4[nH]nc(-c5ccc(S(=O)(=O)C(F)(F)F)cc5)c4c3)cc2CC1 (stereo partly drawn) [Example 8, (2R)-2-Methyl-1-{7-methyl-2-[3-(4-trifluoromethanesulfonylphenyl)-1H-pyrazolo[3,4-b]pyridin-5-yl]-6,7,8,9-tetrahydro-5H-benzo[7]annulen-7-yl}pyrrolidine]	> 1000 nM
CC(C)(O)c1ccc(-c2n[nH]c3ncc(-c4ccc5c(c4)CCC(N4CCCC4)CC5)cc23)cn1 (centres unmarked) [Example 9, 2-(5-{5-[7-(Pyrrolidin-1-yl)-6,7,8,9-tetrahydro-5H-benzo[7]annulen-2-yl]-1H-pyrazolo[3,4-b]pyridin-3-yl}pyridin-2-yl)propan-2-ol]	< 100 nM
CC(C)(O)c1ccc(-c2n[nH]c3ncc(-c4ccc5c(c4)CCN(C4CCCC4)CC5)cc23)cn1 [Example 10, 2-{5-[5-(3-Cyclopentyl-2,3,4,5-tetrahydro-1H-3-benzazepin-7-yl)-1H-pyrazolo[3,4-b]pyridin-3-yl]pyridin-2-yl}propan-2-ol]	100 to 1000 nM
CC(C)(O)c1ccc(-c2n[nH]c3ncc(-c4ccc5c(c4)CCC(N4CCCC4)CC5)cc23)cc1Cl (centres unmarked) [Example 11, 2-(2-Chloro-4-{5-[7-(pyrrolidin-1-yl)-6,7,8,9-tetrahydro-5H-benzo[7]annulen-2-yl]-1H-pyrazolo[3,4-b]pyridin-3-yl}phenyl)propan-2-ol]	100 to 1000 nM
CC(C)(O)c1ccc(-c2n[nH]c3ncc(-c4ccc5c(c4)CCN(C4CCCC4)CC5)cc23)cc1Cl [Example 12, 2-{2-Chloro-4-[5-(3-cyclopentyl-2,3,4,5-tetrahydro-1H-3-benzazepin-7-yl)-1H-pyrazolo[3,4-b]pyridin-3-yl]phenyl}propan-2-ol]	> 1000 nM
CC(C)(O)c1ccc(-c2n[nH]c3ncc(-c4ccc5c(c4)CCN(C4CCCC4)CC5)cc23)cc1C(F)(F)F [Example 16, 2-{4-[5-(3-Cyclopentyl-2,3,4,5-tetrahydro-1H-3-benzazepin-7-yl)-1H-pyrazolo[3,4-b]pyridin-3-yl]-2-(trifluoromethyl)phenyl}propan-2-ol]	100 to 1000 nM
CC(C)(O)c1ccc(-c2n[nH]c3ncc(-c4ccc5c(c4)CCN(C4CCCC4)CC5)cc23)c(F)c1 [Example 17, 2-{4-[5-(3-Cyclopentyl-2,3,4,5-tetrahydro-1H-3-benzazepin-7-yl)-1H-pyrazolo[3,4-b]pyridin-3-yl]-3-fluorophenyl}propan-2-ol]	100 to 1000 nM
C[C@@H]1CCCN1C1CCc2ccc(-c3cnc4[nH]nc(-c5ccc(C(C)(C)O)c(C(F)(F)F)c5)c4c3)cc2CC1 (stereo partly drawn) [Example 20, 2-[4-(5-{7-[(2R)-2-Methylpyrrolidin-1-yl]-6,7,8,9-tetrahydro-5H-benzo[7]annulen-2-yl}-1H-pyrazolo[3,4-b]pyridin-3-yl)-2-(trifluoromethyl)phenyl]propan-2-ol]	< 100 nM
CC(C)(O)c1ccc(-c2n[nH]c3ncc(-c4ccc5c(c4)CCC(N4CCC[C@@H]4CO)CC5)cc23)cc1Cl (stereo partly drawn) [Example 21, 2-[2-Chloro-4-(5-{7-[(2R)-2-(hydroxymethyl)pyrrolidin-1-yl]-6,7,8,9-tetrahydro-5H-benzo[7]annulen-2-yl}-1H-pyrazolo[3,4-b]pyridin-3-yl)phenyl]propan-2-ol]	100 to 1000 nM
C[C@@H]1CCCN1C1(C)CCc2ccc(-c3cnc4[nH]nc(-c5ccc(C(C)(C)O)nc5)c4c3)cc2CC1 (stereo partly drawn) [Example 22, 2-[5-(5-{7-Methyl-7-[(2R)-2-methylpyrrolidin-1-yl]-6,7,8,9-tetrahydro-5H-benzo[7]annulen-2-yl}-1H-pyrazolo[3,4-b]pyridin-3-yl)pyridin-2-yl]propan-2-ol]	< 100 nM

Results, then the compound that gave them:

IC50	Structure (SMILES)
100 to 1000 nM	CS(=O)(=O)N1CCC(c2n[nH]c3ncc(-c4ccc5c(c4)CCC(N4CCCC4)CC5)cc23)CC1 (centres unmarked) [Example 23, 1-Methanesulfonyl-4-{5-[7-(pyrrolidin-1-yl)-6,7,8,9-tetrahydro-5H-benzo[7]annulen-2-yl]-1H-pyrazolo[3,4-b]pyridin-3-yl}piperidine]
100 to 1000 nM	C[C@H]1CCCN1C1CCc2ccc(-c3cnc4[nH]nc(-c5ccc(S(=O)(=O)C6CC6)cc5)c4c3)cc2CC1 (stereo partly drawn) [Example 24, 3-(4-(Cyclopropylsulfonyl)phenyl)-5-(7-((S)-2-methylpyrrolidin-1-yl)-6,7,8,9-tetrahydro-5H-benzo[7]annulen-2-yl)-1H-pyrazolo[3,4-b]pyridine]
< 100 nM	C[C@@H]1CCCN1C1(C)CCc2ccc(-c3cnc4[nH]nc(-c5ccc(S(=O)(=O)C6CC6)c(F)c5)c4c3)cc2CC1 (stereo partly drawn) [Example 25, (2R)-1-(2-{3-[4-(Cyclopropanesulfonyl)-3-fluorophenyl]-1H-pyrazolo[3,4-b]pyridin-5-yl}-7-methyl-6,7,8,9-tetrahydro-5H-benzo[7]annulen-7-yl)-2-methylpyrrolidine]
100 to 1000 nM	O=S(=O)(c1ccc(-c2n[nH]c3ncc(-c4ccc5c(c4)CCN(C4CCOCC4)CC5)cc23)cc1)C1CC1 [Example 26, 7-{3-[4-(Cyclopropanesulfonyl)phenyl]-1H-pyrazolo[3,4-b]pyridin-5-yl}-3-(oxan-4-yl)-2,3,4,5-tetrahydro-1H-3-benzazepine]
> 1000 nM	O=S(=O)(c1ccc(-c2n[nH]c3ncc(-c4ccc5c(c4)CCN(CC4CCOC4)CC5)cc23)cc1)C1CC1 (centres unmarked) [Example 27, 7-{3-[4-(Cyclopropanesulfonyl)phenyl]-1H-pyrazolo[3,4-b]pyridin-5-yl}-3-[(oxolan-3-yl)methyl]-2,3,4,5-tetrahydro-1H-3-benzazepine]
< 100 nM	CS(=O)(=O)c1ccc(-c2n[nH]c3ncc(-c4ccc5c(c4)CCN(C4CCCC4)CC5)cc23)cc1 [Example 30, 3-Cyclopentyl-7-(3-(4-(methylsulfonyl)phenyl)-1H-pyrazolo[3,4-b]pyridin-5-yl)-2,3,4,5-tetrahydro-1H-benzo[d]azepine]
